Where two headings read alike, the source gives them in different places.
How the values were obtained:
Format in all cases: cell-based
[1] = tested on: SH-SY5Y (human neuroblastoma) cells; experiment: Cell viability, Cell Titer Glo 2.0 assay; settings: read-out: Viability SHSY5Y.3 GI50
In short: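 Toxicity screen in SH-SY5Y cells. Compounds were serially diluted in DMSO and then in medium, giving 0.1% DMSO final. Viability was read with CellTiter-Glo 2.0 after 72 h at 37 °C, 5% CO2, against medium-only blank wells.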

[2] = tested on: MYB mRNA; experiment: Splicing RT-qPCR assay (THP), Table 2A
[3] = tested on: HTT mRNA; experiment: Gene panel canonical junction qPCR assay, decrease in CJ mRNA, Table 3
In short: (§1)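 A673 (DMEM, 10% FBS, 15,000 cells/well) or K562 (IMDM, 10% FBS) cells treated 24 h at 37 °C with 11-point 3-fold dilutions, top 10 uM, DMSO ≤0.25%. Canonical exon-exon junction mRNA measured by RT-qPCR, normalized to GAPDH, GUSB or PPIA and DMSO (ΔΔCt); IC50 from 4-parameter logistic fit.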

[4] = tested on: MYB mRNA; experiment: as above
In short: as §1

[5] = tested on: HTT mRNA; experiment: Splicing RT-qPCR assay (THP), Table 2A
[6] = Table 2A (THP), AJ mRNA increase, read-out: MYB AJ (increase in alternative junction mRNA, AC50)
[7] = Table 2A (THP), CJ mRNA decrease, read-out: MYB CJ (decrease in canonical junction mRNA, IC50)
[8] = decrease in canonical junction (CJ) mRNA, gene panel qPCR, Table 3
[9] = Table 2A (THP), AJ mRNA increase, read-out: HTT AJ (increase in alternative junction mRNA, AC50)
[10] = Table 2A (THP), CJ mRNA decrease, read-out: HTT CJ (decrease in canonical junction mRNA, IC50)
[11] = Table 2A, THP, MYB alternative junction (AJ) mRNA, read-out: MYB AJ (AC50, increase in alternative junction mRNA)
[12] = Table 2A, THP, MYB canonical junction (CJ) mRNA, read-out: MYB CJ (IC50, decrease in canonical junction mRNA)
[13] = decrease in CJ mRNA levels, canonical junction qPCR, gene panel
[14] = Table 2A, THP, HTT alternative junction (AJ) mRNA, read-out: HTT AJ (AC50, increase in alternative junction mRNA)
[15] = Table 2A, THP, HTT canonical junction (CJ) mRNA, read-out: HTT CJ (IC50, decrease in canonical junction mRNA)

Structure (SMILES)	GI50 [1] [µM]	AC50 [2, 6] [µM]	IC50 [2, 7] [µM]	IC50 [3, 8] [µM]	IC50 [4, 8] [µM]	AC50 [5, 9] [µM]	IC50 [5, 10] [µM]	AC50 [2, 11] [µM]	IC50 [2, 12] [µM]	IC50 [3, 13] [µM]	IC50 [4, 13] [µM]	AC50 [5, 14] [µM]	IC50 [5, 15] [µM]
COc1cc(NC(=O)c2c(F)cc(N3CCC(NC4CC4)CC3)c3cn(C)nc23)cc2cn(C)nc12 [Compound 423, 4-[4-(cyclopropylamino)-1-piperidyl]-6-fluoro-N-(7-methoxy-2-methyl-indazol-5-yl)-2-methyl-indazole-7-carboxamide]	1 to 10	0.1 to 1	0.1 to 1	1 to 10	0.1 to 1	1 to 10	1 to 10						
COc1cc2nn(C)cc2cc1NC(=O)c1ccc(N2CC(C3CNC3)C2)c2cn(C)nc12 [Compound 509]	> 10	> 10	> 10	> 10	> 10	> 10	> 10						
COc1c(NC(=O)c2cc(F)c(N3CCC(NC4CC4)CC3)c3cn(C)nc23)cn2cc(C)nc2c1F [Compound 709]	1 to 10							0.1 to 1	0.1 to 1	1 to 10	0.1 to 1	1 to 10	1 to 10
COc1c(NC(=O)c2c(F)cc(N3CC[C@H](NC4CC4)C4(CC4)C3)c3cn(C)nc23)cn2cc(C)nc2c1F [Compound 367, 4-[(8S)-8-(cyclopropylamino)-5-azaspiro[2.5]octan-5-yl]-6-fluoro-N-(8-fluoro-7-methoxy-2-methyl-imidazo[1,2-a]pyridin-6-yl)-2-methyl-indazole-7-carboxamide]	0.1 to 1	< 0.1	< 0.1	1 to 10	< 0.1	1 to 10	1 to 10						
COc1nc2c(C(=O)Nc3cc4cn(C)nc4cc3O)ccc(N3C[C@H](C)N[C@@H](C)C3)c2s1 [Compound 728, 7-[(3S,5S)-3,5-dimethylpiperazin-1-yl]-N-(6-hydroxy-2-methyl-indazol-5-yl)-2-methoxy-1,3-benzothiazole-4-carboxamide]	1 to 10							0.1 to 1	0.1 to 1	> 10	0.1 to 1	> 10	> 10
Cc1cn2cc(NC(=O)c3ccc(N4CCC(NC5CC5)CC4)c4cn(C)nc34)nc2c(CCS(=O)(=O)N(C)C)n1 [Compound 805]	1 to 10							> 10	1 to 10	> 10	1 to 10	> 10	> 10
CN[C@H]1CCN(c2ccc(C(=O)Nc3cc(F)c4nn(C)cc4c3)c3nc(OC)sc23)C1 [Compound 748, N-(7-fluoro-2-methyl-indazol-5-yl)-2-methoxy-7-[(3S)-3-(methylamino)pyrrolidin-1-yl]-1,3-benzothiazole-4-carboxamide]	0.1 to 1							< 0.1	< 0.1	1 to 10	< 0.1	0.1 to 1	1 to 10
Cc1cn2nc(NC(=O)c3ccc(N4CCC(NC5CC5)CC4)c4cn(C)nc34)cc(CN)c2n1 [Compound 870]	0.1 to 1							> 10	> 10	> 10	> 10	> 10	> 10
COc1cc2nn(C)cc2cc1NC(=O)c1cc(C)c(N2CCC(NC3CC3)CC2)c2cn(C)nc12 [Compound 696]	1 to 10							> 10	> 10	> 10	> 10	> 10	> 10
Cc1cn2cc(NC(=O)c3ccc(N4CC(N5CCNCC5)C4)c4cn(C)nc34)nc2c(C)n1 [Compound 500]	> 10	> 10	> 10	> 10	> 10	> 10	> 10						
CCNC1CCN(c2ccc(C(=O)Nc3cc(CCC(N)=O)c4nn(C)cc4c3)c3nn(C)cc23)CC1 [Compound 875]	> 10							> 10	> 10	> 10	> 10	> 10	> 10

— US20260285853A1, “COMPOUNDS AND METHODS FOR MODULATING SPLICING” (REMIX THERAPEUTICS INC., priority 2023, published 2026)
